The text below walks through data of US20240239790A1, “7-Morpholino-1,6-Naphthyridin-5-yl Derivatives and Pharmaceutical Compositions Thereof Useful as DNA-PK Inhibitor” (adMare Therapeutics Society, priority 2021, published 2024).

Data set [1] deals with T1, DNA-PK phosphorylation at Serine 2056 (Homo sapiens, UniProt P78527).
T1 construct: FaDu cells were purchased from ATCC; host or cells: FaDu
Nature of the data set: Cellular Assay for Inhibition of DNA-PK Phosphorylation at Serine 2056 in FaDu cells (sandwich ELISA, neocarzinostatin). Format: cell-based. The note with it: pSer2056 DNA-PK, neocarzinostatin 1 μg/mL, Table 1. In a few lines: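 pSer2056 and total DNA-PK were measured by sandwich ELISA in BCA-normalised FaDu lysates. Cells had 1 h compound exposure (0.3% DMSO), then 2 h with 1 μg/mL final neocarzinostatin. IC50 was fitted (variable slope) to % inhibition scaled against NCS-stimulated and DMSO-only controls.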

The nature of data set [2]: Microsomal Stability Assay, human liver microsomes. Format: in vitro ADME. The note with it: for microsomal CLint at 0.1 uM: both sexes, pH 7.4, human liver microsomes 0.1 mg/mL, 0.1 uM compound; for Microsomal Stability Human % rem. 60 min: human liver microsomes. The method, then: (§1) Samples were then mixed and centrifuged. Supernatants were used for HPLC-MS/MS analysis. […] Peak areas corresponding to the test compound were recorded.

Data set [3] can be described thus: Microsomal Stability Assay, mouse liver microsomes. The data set is classed as in vitro ADME. The note with it: for microsomal CLint at 0.1 uM: male, CD-1, pH 7.4, mouse liver microsomes 0.1 mg/mL, 0.1 uM compound; for Microsomal Stability Mouse % rem. 60 min: mouse liver microsomes. The method, then:
as §1

Molecule `CN1CCN(C(=O)COc2cnc(N[C@H]3CC[C@@H](Oc4nc(N5CCOCC5)cc5ncccc45)CC3)nc2)CC1` [Compound 62, 1-(4-Methylpiperazin-1-yl)-2-((2-(((1s,4s)-4-((7-morpholino-1,6-naphthyridin-5-yl)oxy)cyclohexyl)amino)pyrimidin-5-yl)oxy)ethan-1-one] yielded an IC50 in data set [1] below 100 nM. In addition, in data set [2], the microsomal CLint at 0.1 uM is below 116 µL/min/mg and the “Microsomal Stability Human % rem. 60 min” value is on record as “G (% remaining = 50-75%)”. Further, in data set [3], the microsomal CLint at 0.1 uM was below 116 µL/min/mg and the “Microsomal Stability Mouse % rem. 60 min” value is on record as “F (% remaining = 25-50%)”.
In the case of `O=C(COc1cnc(N[C@H]2CC[C@@H](Oc3nc(N4CCOCC4)cc4ncccc34)CC2)nc1)N1CCNCC1` [Compound 63, 2-((2-(((1s,4s)-4-((7-Morpholino-1,6-naphthyridin-5-yl)oxy)cyclohexyl)amino)pyrimidin-5-yl)oxy)-1-(piperazin-1-yl)ethan-1-one], the IC50 in data set [1] was below 100 nM. For the same molecule, in data set [2], the microsomal CLint at 0.1 uM was below 116 µL/min/mg and the “Microsomal Stability Human % rem. 60 min” value was “H (% remaining = 75-100%)”. In addition, in data set [3], the microsomal CLint at 0.1 uM was above 116 µL/min/mg and the “Microsomal Stability Mouse % rem. 60 min” value is “F (% remaining = 25-50%)”.
As to `CN(C)CCOc1cnc(N[C@H]2CC[C@@H](Oc3nc(N4CCOCC4)cc4ncccc34)CC2)nc1` [Compound 64, 5-(2-(Dimethylamino)ethoxy)-N-((1s,4s)-4-((7-morpholino-1,6-naphthyridin-5-yl)oxy)cyclohexyl)pyrimidin-2-amine], the IC50 in data set [1] was in the range of 100 to 1000 nM. In addition, in data set [2], the microsomal CLint at 0.1 uM was below 116 µL/min/mg and the “Microsomal Stability Human % rem. 60 min” value is reported as “H (% remaining = 75-100%)”. Moreover, in data set [3], the microsomal CLint at 0.1 uM was below 116 µL/min/mg and the “Microsomal Stability Mouse % rem. 60 min” value is “G (% remaining = 50-75%)”.
Take `NCCOc1cnc(N[C@H]2CC[C@@H](Oc3nc(N4CCOCC4)cc4ncccc34)CC2)nc1` [Compound 65, 5-(2-Aminoethoxy)-N-((1s,4s)-4-((7-morpholino-1,6-naphthyridin-5-yl)oxy)cyclohexyl)pyrimidin-2-amine]: in data set [1], the IC50 is below 100 nM. In data set [2], the microsomal CLint at 0.1 uM was above 116 µL/min/mg and the “Microsomal Stability Human % rem. 60 min” value is “G (% remaining = 50-75%)”. Besides, in data set [3], the microsomal CLint at 0.1 uM is below 116 µL/min/mg and the “Microsomal Stability Mouse % rem. 60 min” value is recorded as “G (% remaining = 50-75%)”.
Regarding `CC(=O)NCCOc1cnc(N[C@H]2CC[C@@H](Oc3nc(N4CCOCC4)cc4ncccc34)CC2)nc1` [Compound 66], the IC50 in data set [1] was below 100 nM. Besides, in data set [2], the microsomal CLint at 0.1 uM is above 116 µL/min/mg and the “Microsomal Stability Human % rem. 60 min” value is listed as “F (% remaining = 25-50%)”. Also, in data set [3], the microsomal CLint at 0.1 uM was below 116 µL/min/mg and the “Microsomal Stability Mouse % rem. 60 min” value is “G (% remaining = 50-75%)”.
For `c1cnc2cc(N3CCOCC3)nc(O[C@H]3CC[C@@H](Nc4ncc(OCCN5CCOCC5)cn4)CC3)c2c1` [Compound 68, N-((1s,4s)-4-((7-Morpholino-1,6-naphthyridin-5-yl)oxy)cyclohexyl)-5-(2-morpholinoethoxy)pyrimidin-2-amine], the IC50 in data set [1] was in the range of 100 to 1000 nM. In data set [3], the microsomal CLint at 0.1 uM is below 116 µL/min/mg and the “Microsomal Stability Mouse % rem. 60 min” value was “F (% remaining = 25-50%)”.
For `O=c1[nH]c2cnc(N[C@H]3CC[C@@H](Oc4nc(N5CCOCC5)cc5ncccc45)CC3)nc2n1C1CCOCC1` [Compound 95, 2-(((1s,4s)-4-((7-Morpholino-1,6-naphthyridin-5-yl)oxy)cyclohexyl)amino)-9-(tetrahydro-2H-pyran-4-yl)-7,9-dihydro-8H-purin-8-one], in data set [1], the IC50 is below 100 nM.
In data set [1], `Cn1c(=O)n(C2CCOCC2)c2nc(N[C@H]3CC[C@@H](Oc4nc(N5CCOCC5)cc5ncccc45)CC3)ncc21` [Compound 96, 7-Methyl-2-(((1s,4s)-4-((7-morpholino-1,6-naphthyridin-5-yl)oxy)cyclohexyl)amino)-9-(tetrahydro-2H-pyran-4-yl)-7,9-dihydro-8H-purin-8-one] returned an IC50 below 100 nM.
The same measure, in the same setting: with `O=C(Cn1c(=O)n(C2CCOCC2)c2nc(N[C@H]3CC[C@@H](Oc4nc(N5CCOCC5)cc5ncccc45)CC3)ncc21)N1CCOCC1` [Compound 98, 2-(((1s,4s)-4-((7-Morpholino-1,6-naphthyridin-5-yl)oxy)cyclohexyl)amino)-7-(2-morpholino-2-oxoethyl)-9-(tetrahydro-2H-pyran-4-yl)-7,9-dihydro-8H-purin-8-one] the figure was below 100 nM; with `O=C(Cn1c(=O)n(C2CCOCC2)c2nc(N[C@H]3CC[C@@H](Oc4nc(N5CCOCC5)cc5ncccc45)CC3)ncc21)N1CCC1` [Compound 99, 7-(2-(Azetidin-1-yl)-2-oxoethyl)-2-(((1s,4s)-4-((7-morpholino-1,6-naphthyridin-5-yl)oxy)cyclohexyl)amino)-9-(tetrahydro-2H-pyran-4-yl)-7,9-dihydro-8H-purin-8-one], below 100 nM; with `Cn1c(=O)[nH]c2cnc(N[C@H]3CC[C@@H](Oc4nc(N5CCOCC5)cc5ncccc45)CC3)nc21` [Compound 100, 9-Methyl-2-(((1s,4s)-4-((7-morpholino-1,6-naphthyridin-5-yl)oxy)cyclohexyl)amino)-7,9-dihydro-8H-purin-8-one], below 100 nM.
Still for that read-out and setting: the same measure for `Cn1c(=O)n(C)c2nc(N[C@H]3CC[C@@H](Oc4nc(N5CCOCC5)cc5ncccc45)CC3)ncc21` [Compound 101, 7,9-Dimethyl-2-(((1s,4s)-4-((7-morpholino-1,6-naphthyridin-5-yl)oxy)cyclohexyl)amino)-7,9-dihydro-8H-purin-8-one]: below 100 nM.
In turn, `CN(C)C(=O)Cn1c(=O)n(C)c2nc(N[C@H]3CC[C@@H](Oc4nc(N5CCOCC5)cc5ncccc45)CC3)ncc21` [Compound 102, N,N-Dimethyl-2-(9-methyl-2-(((1s,4s)-4-((7-morpholino-1,6-naphthyridin-5-yl)oxy)cyclohexyl)amino)-8-oxo-8,9-dihydro-7H-purin-7-yl)acetamide] yielded an IC50 in data set [1] below 100 nM.
In data set [1], `O=C(O)c1cnc2cc(N3CCOCC3)nc(O[C@H]3CC[C@@H](n4ccnc4)CC3)c2c1` [Compound 165, 5-(((1s,4s)-4-(1H-imidazol-1-yl)cyclohexyl)oxy)-7-morpholino-1,6-naphthyridine-3-carboxylic acid] gave a half-maximal inhibitory concentration (IC50) of 10000 to 30000 nM. In addition, in data set [3], the microsomal CLint at 0.1 uM is below 116 µL/min/mg and the “Microsomal Stability Mouse % rem. 60 min” value is reported as “H (% remaining = 75-100%)”.
With `O=C(NO)c1cnc2cc(N3CCOCC3)nc(O[C@H]3CC[C@@H](n4ccnc4)CC3)c2c1` [Compound 172, 5-(((1s,4s)-4-(1H-imidazol-1-yl)cyclohexyl)oxy)-N-hydroxy-7-morpholino-1,6-naphthyridine-3-carboxamide], in data set [1], the IC50 lay within 1000 to 10000 nM. Besides, in data set [3], the microsomal CLint at 0.1 uM was below 116 µL/min/mg and the “Microsomal Stability Mouse % rem. 60 min” value is “G (% remaining = 50-75%)”.
As to `CS(=O)(=O)NC(=O)c1cnc2cc(N3CCOCC3)nc(O[C@H]3CC[C@@H](n4ccnc4)CC3)c2c1` [Compound 175, 5-(((1s,4s)-4-(1H-imidazol-1-yl)cyclohexyl)oxy)-N-(methylsulfonyl)-7-morpholino-1,6-naphthyridine-3-carboxamide], the IC50 in data set [1] was 10000 to 30000 nM. Moreover, in data set [3], the microsomal CLint at 0.1 uM is below 116 µL/min/mg and the “Microsomal Stability Mouse % rem. 60 min” value is “H (% remaining = 75-100%)”.
In data set [1], `O=S(=O)(CF)Nc1cnc2cc(N3CCOCC3)nc(O[C@H]3CC[C@@H](Nc4ncccn4)CC3)c2c1` [Compound 192, 1-fluoro-N-(7-morpholino-5-(((1s,4s)-4-(pyrimidin-2-ylamino)cyclohexyl)oxy)-1,6-naphthyridin-3-yl)methanesulfonamide] yielded an IC50 of 100 to 1000 nM.
Same read-out and setting: with `O=S(=O)(CC(F)F)Nc1cnc2cc(N3CCOCC3)nc(O[C@H]3CC[C@@H](Nc4ncccn4)CC3)c2c1` [Compound 193, 2,2-difluoro-N-(7-morpholino-5-(((1s,4s)-4-(pyrimidin-2-ylamino)cyclohexyl)oxy)-1,6-naphthyridin-3-yl)ethane-1-sulfonamide] the figure was 100 to 1000 nM.
With `CS(=O)(=O)c1cnc2cc(N3CCOCC3)nc(O[C@H]3CC[C@@H](Nc4ncccn4)CC3)c2c1` [Compound 200b, N-((1s,4s)-4-((3-(methylsulfonyl)-7-morpholino-1,6-naphthyridin-5-yl)oxy)cyclohexyl)pyrimidin-2-amine], the IC50 in data set [1] lay in the range of 100 to 1000 nM.
In data set [1], `CS(=O)(=O)c1cnc2cc(N3CCOCC3)nc(O[C@H]3CC[C@@H](Nc4ncc(OCC(=O)N5CCOCC5)cn4)CC3)c2c1` [Compound 204a, 2-((2-(((1s,4s)-4-((3-(methylsulfonyl)-7-morpholino-1,6-naphthyridin-5-yl)oxy)cyclohexyl)amino)pyrimidin-5-yl)oxy)-1-morpholinoethan-1-one] yielded an IC50 of 100 to 1000 nM.
The molecule `CS(=O)(=O)c1cnc2cc(N3CCOCC3)nc(O[C@H]3CC[C@@H](Nc4ncnc5ccoc45)CC3)c2c1` [Compound 204b, N-((1s,4s)-4-((3-(methylsulfonyl)-7-morpholino-1,6-naphthyridin-5-yl)oxy)cyclohexyl)furo[3,2-d]pyrimidin-4-amine] showed an IC50 in data set [1] below 100 nM.
As for `CS(=O)(=O)c1cnc2cc(N3CCOCC3)nc(O[C@H]3CC[C@@H](NC(=O)c4ncco4)CC3)c2c1` [Compound 204c, N-((1s,4s)-4-((3-(methylsulfonyl)-7-morpholino-1,6-naphthyridin-5-yl)oxy)cyclohexyl)oxazole-2-carboxamide], the IC50 in data set [1] was below 100 nM.
